{"source": "patent US12594276B2", "about": "“Inhibitors of human immunodeficiency virus replication” (ViiV Healthcare UK (No.5) Limited, priority 2024, dated 2026)", "key": {"[1]": {"experiment": "Compound cytotoxicity, XTT-based colorimetric assay", "format": "cell-based", "conditions": "human", "how_it_was_run": "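CC50 derived from XTT colorimetric signal measured on day 4 in MT2 cells that were not infected. All other steps followed the antiviral assay protocol.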"}, "[2]": {"test_system": "recombinant NL4-3 virus (nef section replaced with Renilla luciferase gene) in MT-2 cells", "experiment": "HIV cell culture assay (antiviral activity, luciferase readout)", "format": "cell-based", "conditions": "Renilla, NL43, MT-2 cells infected for 4-5 days with recombinant NL4-3 Renilla luciferase virus", "how_it_was_run": "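Read-out: Renilla luciferase (live-cell substrate) in infected MT-2 cells after 4-5 d with serial compound dilutions. Virus from 293T transfection of the proviral clone, titered by luciferase in MT-2. EC50 via median effect equation fit.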"}, "[3]": {"conditions": "uninfected MT2 cells, day 4, XTT, read-out: CC50"}}, "note": "Where two headings read alike, the source gives them in different places."}
{"molecule": "Cc1cc(C2(F)CCC(F)(F)CC2)nc2nc([C@H](Cc3cc(F)cc(F)c3)NC(=O)Cn3nc(C(F)F)c4c3C(F)(F)[C@@H]3C[C@H]43)n(-c3ccc(Cl)c4c(NS(C)(=O)=O)nn(CCN5C[C@@H](C)OC(C)(C)C5)c34)c(=O)c12", "note": "(atropisomer, axis not shown; (P)) [Example 577, N-[(1S)-1-[(3P)-3-(4-chloro-3-methanesulfonamido-1-{2-[(6R)-2,2,6-trimethylmorpholin-4-yl]ethyl}-1H-indazol-7-yl)-5-methyl-4-oxo-7-(1,4,4-trifluorocyclohexyl)-3H,4H-pyrido[2,3-d]pyrimidin-2-yl]-2-(3,5-difluorophenyl)ethyl]-2-[(2S,4R)-9-(difluoromethyl)-5,5-difluoro-7,8-diazatricyclo[4.3.0.0^2,^4]nona-1(6),8-dien-7-yl]acetamide]", "values": [{"measurement": "CC50 at 4 days", "setting": "[1]; [3]", "value": "> 20", "unit": "nM"}, {"measurement": "EC50", "setting": "[2]", "value": 0.014, "unit": "nM"}]}
{"molecule": "Cc1cc(C2CCC(F)(F)CC2)nc2nc([C@H](Cc3cc(F)cc(F)c3)NC(=O)Cn3nc(C4CC4)c4c3C[C@@H]3C[C@H]43)n(-c3ccc(Cl)c4c(NS(C)(=O)=O)nn(CCN5CCC(F)(F)C5)c34)c(=O)c12", "note": "(atropisomer, axis not shown; (P)) [Example 232, N-[(1S)-1-[(3P)-3-{4-chloro-1-[2-(3,3-difluoropyrrolidin-1-yl)ethyl]-3-methanesulfonamido-1H-indazol-7-yl}-7-(4,4-difluorocyclohexyl)-5-methyl-4-oxo-3H,4H-pyrido[2,3-d]pyrimidin-2-yl]-2-(3,5-difluorophenyl)ethyl]-2-[(2S,4S)-9-cyclopropyl-7,8-diazatricyclo[4.3.0.0^2,^4]nona-1(6),8-dien-7-yl]acetamide]", "values": [{"measurement": "CC50 at 4 days", "setting": "[1]; [3]", "value": "> 50", "unit": "nM"}, {"measurement": "EC50", "setting": "[2]", "value": 0.009, "unit": "nM"}]}
{"molecule": "Cc1cc(C2CCC(F)(F)CC2)nc2nc([C@H](Cc3cc(F)cc(F)c3)NC(=O)Cn3nc(C(F)F)c4c3C(F)(F)[C@@H]3C[C@H]43)n(-c3ccc(Cl)c4c(NS(C)(=O)=O)nn(CCN5CC(C)(C)OC(C)(C)C5)c34)c(=O)c12", "note": "(atropisomer, axis not shown; (P)) [Example 17, N-[(1S)-1-[(3P)-3-{4-chloro-3-methanesulfonamido-1-[2-(2,2,6,6-tetramethylmorpholin-4-yl)ethyl]-1H-indazol-7-yl}-7-(4,4-difluorocyclohexyl)-5-methyl-4-oxo-3H,4H-pyrido[2,3-d]pyrimidin-2-yl]-2-(3,5-difluorophenyl)ethyl]-2-[(2S,4R)-9-(difluoromethyl)-5,5-difluoro-7,8-diazatricyclo[4.3.0.0^2,^4]nona-1(6),8-dien-7-yl]acetamide]", "values": [{"measurement": "CC50 at 4 days", "setting": "[1]; [3]", "value": "> 50", "unit": "nM"}, {"measurement": "EC50", "setting": "[2]", "value": 0.012, "unit": "nM"}]}
{"molecule": "CS(=O)(=O)Nc1nn(CCN2CCOCC2)c2c(-n3c([C@H](Cc4cc(F)cc(F)c4)NC(=O)Cn4nc(C5CC5)c5c4C[C@@H]4C[C@H]54)nc4nc(C5CCC(F)(F)CC5)cc(C(F)F)c4c3=O)ccc(Cl)c12", "note": "[Example 227, N-[(1S)-1-[(3P)-3-{4-chloro-3-methanesulfonamido-1-[2-(morpholin-4-yl)ethyl]-1H-indazol-7-yl}-7-(4,4-difluorocyclohexyl)-5-(difluoromethyl)-4-oxo-3H,4H-pyrido[2,3-d]pyrimidin-2-yl]-2-(3,5-difluorophenyl)ethyl]-2-[(2S,4S)-9-cyclopropyl-7,8-diazatricyclo[4.3.0.0^2,^4]nona-1(6),8-dien-7-yl]acetamide]", "values": [{"measurement": "CC50 at 4 days", "setting": "[1]; [3]", "value": "> 50", "unit": "nM"}, {"measurement": "EC50", "setting": "[2]", "value": 0.016, "unit": "nM"}]}
{"molecule": "COCCCn1nc(NS(C)(=O)=O)c2c(Cl)ccc(-n3c([C@H](Cc4cc(F)cc(F)c4)NC(=O)Cn4nc(C(F)F)c5c4C(F)(F)[C@@H]4C[C@H]54)nc4nc(C5CCC(F)(F)CC5)cc(NCCC(C)(C)OC)c4c3=O)c21", "note": "(atropisomer, axis not shown; (P)) [Example 565, N-[(1S)-1-[(3P)-3-[4-chloro-3-methanesulfonamido-1-(3-methoxypropyl)-1H-indazol-7-yl]-7-(4,4-difluorocyclohexyl)-5-[(3-methoxy-3-methylbutyl)amino]-4-oxo-3H,4H-pyrido[2,3-d]pyrimidin-2-yl]-2-(3,5-difluorophenyl)ethyl]-2-[(2S,4R)-9-(difluoromethyl)-5,5-difluoro-7,8-diazatricyclo[4.3.0.0^2,^4]nona-1(6),8-dien-7-yl]acetamide]", "values": [{"measurement": "CC50 at 4 days", "setting": "[1]; [3]", "value": "> 20", "unit": "nM"}, {"measurement": "EC50", "setting": "[2]", "value": 0.011, "unit": "nM"}]}
{"molecule": "Cc1cc(C2CCC(F)(F)CC2)nc2nc([C@H](Cc3cc(F)cc(F)c3)NC(=O)Cn3nc(C(F)F)c4c3C(F)(F)[C@@H]3C[C@H]43)n(-c3ccc(Cl)c4c(NS(C)(=O)=O)nn([C@@H](C)CN5CC(C)(C)OC(C)(C)C5)c34)c(=O)c12", "note": "(atropisomer, axis not shown; (P)) [Example 742, N-[(1S)-1-[(3P)-3-{4-chloro-3-methanesulfonamido-1-[(2S)-1-(2,2,6,6-tetramethylmorpholin-4-yl)propan-2-yl]-1H-indazol-7-yl}-7-(4,4-difluorocyclohexyl)-5-methyl-4-oxo-3H,4H-pyrido[2,3-d]pyrimidin-2-yl]-2-(3,5-difluorophenyl)ethyl]-2-[(2S,4R)-9-(difluoromethyl)-5,5-difluoro-7,8-diazatricyclo[4.3.0.0^2,^4]nona-1(6),8-dien-7-yl]acetamide]", "values": [{"measurement": "CC50 at 4 days", "setting": "[1]; [3]", "value": "> 20", "unit": "nM"}, {"measurement": "EC50", "setting": "[2]", "value": 0.026, "unit": "nM"}]}
{"molecule": "COCCCn1nc(NS(C)(=O)=O)c2c(Cl)ccc(-n3c([C@H](Cc4cc(F)cc(F)c4)NC(=O)Cn4nc(C(F)F)c5c4C(F)(F)[C@@H]4C[C@H]54)nc4nc(C5CCC(F)(F)CC5)cc(NCCN5CCC(F)(F)C5)c4c3=O)c21", "note": "(atropisomer, axis not shown; (P)) [Example 552, N-[(1S)-1-[(3P)-3-[4-chloro-3-methanesulfonamido-1-(3-methoxypropyl)-1H-indazol-7-yl]-7-(4,4-difluorocyclohexyl)-5-{[2-(3,3-difluoropyrrolidin-1-yl)ethyl]amino}-4-oxo-3H,4H-pyrido[2,3-d]pyrimidin-2-yl]-2-(3,5-difluorophenyl)ethyl]-2-[(2S,4R)-9-(difluoromethyl)-5,5-difluoro-7,8-diazatricyclo[4.3.0.0^2,^4]nona-1(6),8-dien-7-yl]acetamide]", "values": [{"measurement": "CC50 at 4 days", "setting": "[1]; [3]", "value": "> 20", "unit": "nM"}, {"measurement": "EC50", "setting": "[2]", "value": 0.006, "unit": "nM"}]}
{"molecule": "CS(=O)(=O)Nc1nn(CCN2CCC(F)(F)C2)c2c(-n3c([C@H](Cc4cc(F)cc(F)c4)NC(=O)Cn4nc(C(F)F)c5c4C(F)(F)[C@@H]4C[C@H]54)nc4nc(C5CCC(F)(F)CC5)cc(C(F)F)c4c3=O)ccc(Cl)c12", "note": "(atropisomer, axis not shown; (P)) [Example 154, N-[(1S)-1-[(3P)-3-{4-chloro-1-[2-(3,3-difluoropyrrolidin-1-yl)ethyl]-3-methanesulfonamido-1H-indazol-7-yl}-7-(4,4-difluorocyclohexyl)-5-(difluoromethyl)-4-oxo-3H,4H-pyrido[2,3-d]pyrimidin-2-yl]-2-(3,5-difluorophenyl)ethyl]-2-[(2S,4R)-9-(difluoromethyl)-5,5-difluoro-7,8-diazatricyclo[4.3.0.0^2,^4]nona-1(6),8-dien-7-yl]acetamide]", "values": [{"measurement": "CC50 at 4 days", "setting": "[1]; [3]", "value": "> 50", "unit": "nM"}, {"measurement": "EC50", "setting": "[2]", "value": 0.019, "unit": "nM"}]}
{"molecule": "COCCCn1nc(NS(C)(=O)=O)c2c(Cl)ccc(-n3c([C@H](Cc4cc(F)cc(F)c4)NC(=O)Cn4nc(C5CC5)c5c4C[C@@H]4C[C@H]54)nc4nc(C5CCC(F)(F)CC5)cc(CN5C[C@@H](C)O[C@@H](C)C5)c4c3=O)c21", "note": "(atropisomer, axis not shown; (P)) [Example 599, N-[(1S)-1-[(3P)-3-[4-chloro-3-methanesulfonamido-1-(3-methoxypropyl)-1H-indazol-7-yl]-7-(4,4-difluorocyclohexyl)-5-{[(2R,6S)-2,6-dimethylmorpholin-4-yl]methyl}-4-oxo-3H,4H-pyrido[2,3-d]pyrimidin-2-yl]-2-(3,5-difluorophenyl)ethyl]-2-[(2S,4S)-9-cyclopropyl-7,8-diazatricyclo[4.3.0.0^2,^4]nona-1(6),8-dien-7-yl]acetamide]", "values": [{"measurement": "CC50 at 4 days", "setting": "[1]; [3]", "value": "> 20", "unit": "nM"}, {"measurement": "EC50", "setting": "[2]", "value": 0.007, "unit": "nM"}]}
{"molecule": "Cc1cc(C2(F)CCC(F)(F)CC2)nc2nc([C@H](Cc3cc(F)cc(F)c3)NC(=O)Cn3nc(C(F)F)c4c3C(F)(F)[C@@H]3C[C@H]43)n(-c3ccc(Cl)c4c(NS(C)(=O)=O)nn([C@H](C)CN5C[C@H](F)C[C@H](F)C5)c34)c(=O)c12", "note": "(atropisomer, axis not shown; (P)) [Example 711, N-[(1S)-1-[(3P)-3-{4-chloro-1-[(2R)-1-[(3R,5S)-3,5-difluoropiperidin-1-yl]propan-2-yl]-3-methanesulfonamido-1H-indazol-7-yl}-5-methyl-4-oxo-7-(1,4,4-trifluorocyclohexyl)-3H,4H-pyrido[2,3-d]pyrimidin-2-yl]-2-(3,5-difluorophenyl)ethyl]-2-[(2S,4R)-9-(difluoromethyl)-5,5-difluoro-7,8-diazatricyclo[4.3.0.0^2,^4]nona-1(6),8-dien-7-yl]acetamide]", "values": [{"measurement": "CC50 at 4 days", "setting": "[1]; [3]", "value": "> 20", "unit": "nM"}, {"measurement": "EC50", "setting": "[2]", "value": 0.026, "unit": "nM"}]}
{"molecule": "Cc1cc(C2(F)CCC(F)(F)CC2)nc2nc([C@H](Cc3cc(F)cc(F)c3)NC(=O)Cn3nc(C(F)F)c4c3C(F)(F)[C@@H]3C[C@H]43)n(-c3ccc(Cl)c4c(NS(C)(=O)=O)nn(CCN5[C@@H]6CC[C@H]5COC6)c34)c(=O)c12", "note": "(atropisomer, axis not shown; (P)) [Example 590, N-[(1S)-1-[(3P)-3-(4-chloro-3-methanesulfonamido-1-{2-[(1R,5S)-3-oxa-8-azabicyclo[3.2.1]octan-8-yl]ethyl}-1H-indazol-7-yl)-5-methyl-4-oxo-7-(1,4,4-trifluorocyclohexyl)-3H,4H-pyrido[2,3-d]pyrimidin-2-yl]-2-(3,5-difluorophenyl)ethyl]-2-[(2S,4R)-9-(difluoromethyl)-5,5-difluoro-7,8-diazatricyclo[4.3.0.0^2,^4]nona-1(6),8-dien-7-yl]acetamide]", "values": [{"measurement": "CC50 at 4 days", "setting": "[1]", "value": "> 20", "unit": "nM"}, {"measurement": "EC50", "setting": "[2]", "value": 0.013, "unit": "nM"}]}
